Laboratory results: PMC7311426, “An amphipathic peptide with antibiotic activity against multidrug-resistant Gram-negative bacteria” (Nature Communications, 2020)
≈ marks a conversion by molar mass, not a printed value.

Tests used:
L. monocytogenes = test: microbe, parasite or virus in culture; conditions: Listeria monocytogenes, ATCC19112, read-out: BMD MIC
In short: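 Broth microdilution in MHB, 2-fold 12-point series from 128 or 64 down to 0.06 or 0.03 μg mL^−1, 5 × 10^5 CFU mL^−1. Extra runs in CAMHB per CLSI and in MHB with 1% agarose; n ≥ 6.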

E. coli = test system: E. coli; design: method as in Hasman H, et al. Euro. Surveill. (2015) 20:49; conditions: E. coli ESBL20150072, mcr-1 pos; ESBL; CAMHB; comparator antibiotics; ref Hasman H, et al. Euro. Surveill. (2015) 20:49; cited from earlier work
P. aeruginosa = P. aeruginosa ATCC 27853; quality control range printed beside broth microdilution MIC of parent strain; cited from earlier work

## C[C@@H](O)[C@H]1C(=O)N2C(C(=O)O)=C(S[C@@H]3CN[C@H](C(=O)N(C)C)C3)[C@H](C)[C@H]12 [Meropenem, meropenem, reference compound]
L. monocytogenes
  MIC: 0.5 µg/mL (≈ 1.3 µM)
E. coli
  BMD MIC: ≤1 µg/mL
P. aeruginosa
  MIC Quality control range: 0.12 to 1 µg/mL
